Measured values: ChEMBL document CHEMBL5584341, “Discovery of Potent, Specific, and Orally Available NLRP3 Inflammasome Inhibitors Based on Pyridazine Scaffolds for the Treatment of Septic Shock and Peritonitis” (J Med Chem, 2024)
Activity calls are given as the source filed them. The calls are words filed in the database; no cut-off is given here.

Assays:
[1] = test system: THP-1; assay: Inhibition of nigericin induced ASC oligomerization in PMA differentiated human THP-1 cells at 5 to 80 nM pretreated with LPS for 3 hrs followed by compound addition for 40 mins prior to nigericin stimulation for 40 mins by gel electrophoresis analysis; format: functional, cell-based; settings: dose 5-80 nM, time 80.0 min
[2] = biological target: NACHT, LRR and PYD domains-containing protein 3 (Mus musculus) (UniProt Q8R4B8); assay: Inhibition of NLRP3 inflammasome activation in LPS/nigericin stimulated mouse BMDMs assessed as reduction in caspase-1 release pretreated with LPS for 3 hrs followed by compound addition for 40 mins prior to nigericin stimulation for 40 mins by Western blotting analysis; format: cell-based; settings: BMDM, time 80.0 min
[3] = biological target: T1, Interferon-inducible protein AIM2 (Mus musculus) (UniProt Q91VJ1); assay: Inhibition of poly dA:dT stimulated AIM2 inflammasome activation in mouse BMDMs assessed as reduction in IL-1beta secretion at 0.1 to 10 uM pretreated with LPS for 3 hrs followed by compound addition for 40 mins prior to poly dA:dT stimulation for 6 hrs by ELISA; format: cell-based; settings: BMDM, dose 0.1-10 µM, time 400.0 min
T1 sequence (whole entry): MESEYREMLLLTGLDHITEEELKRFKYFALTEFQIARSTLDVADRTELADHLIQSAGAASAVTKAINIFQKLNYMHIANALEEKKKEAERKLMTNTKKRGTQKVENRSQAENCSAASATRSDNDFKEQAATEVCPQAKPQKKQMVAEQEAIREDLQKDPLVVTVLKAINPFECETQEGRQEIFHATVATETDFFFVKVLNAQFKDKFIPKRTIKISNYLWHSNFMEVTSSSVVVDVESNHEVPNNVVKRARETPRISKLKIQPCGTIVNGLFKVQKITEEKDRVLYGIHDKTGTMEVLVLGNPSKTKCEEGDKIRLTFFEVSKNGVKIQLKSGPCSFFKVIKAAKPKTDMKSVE

[4] = test system: AML12; assay: Cytotoxicity against mouse AML12 cells at 5 uM incubated for 72 hrs by MTT assay; format: toxicity, cell-based; settings: aml12, 72 h
[5] = biological target: NACHT, LRR and PYD domains-containing protein 3 (Mus musculus) (UniProt Q8R4B8); assay: Inhibition of NLRP3 inflammasome activation in mouse BMDMs assessed as effect on pro-IL-1beta expression at 2 to 31.25 nM pretreated with LPS for 3 hrs followed by compound addition for 40 mins; format: cell-based; settings: BMDM, dose 2-31.25 nM

NACHT, LRR and PYD domains-containing protein 3 (Mus musculus), sequence (Q8R4B8 whole entry, the tested form may be a part): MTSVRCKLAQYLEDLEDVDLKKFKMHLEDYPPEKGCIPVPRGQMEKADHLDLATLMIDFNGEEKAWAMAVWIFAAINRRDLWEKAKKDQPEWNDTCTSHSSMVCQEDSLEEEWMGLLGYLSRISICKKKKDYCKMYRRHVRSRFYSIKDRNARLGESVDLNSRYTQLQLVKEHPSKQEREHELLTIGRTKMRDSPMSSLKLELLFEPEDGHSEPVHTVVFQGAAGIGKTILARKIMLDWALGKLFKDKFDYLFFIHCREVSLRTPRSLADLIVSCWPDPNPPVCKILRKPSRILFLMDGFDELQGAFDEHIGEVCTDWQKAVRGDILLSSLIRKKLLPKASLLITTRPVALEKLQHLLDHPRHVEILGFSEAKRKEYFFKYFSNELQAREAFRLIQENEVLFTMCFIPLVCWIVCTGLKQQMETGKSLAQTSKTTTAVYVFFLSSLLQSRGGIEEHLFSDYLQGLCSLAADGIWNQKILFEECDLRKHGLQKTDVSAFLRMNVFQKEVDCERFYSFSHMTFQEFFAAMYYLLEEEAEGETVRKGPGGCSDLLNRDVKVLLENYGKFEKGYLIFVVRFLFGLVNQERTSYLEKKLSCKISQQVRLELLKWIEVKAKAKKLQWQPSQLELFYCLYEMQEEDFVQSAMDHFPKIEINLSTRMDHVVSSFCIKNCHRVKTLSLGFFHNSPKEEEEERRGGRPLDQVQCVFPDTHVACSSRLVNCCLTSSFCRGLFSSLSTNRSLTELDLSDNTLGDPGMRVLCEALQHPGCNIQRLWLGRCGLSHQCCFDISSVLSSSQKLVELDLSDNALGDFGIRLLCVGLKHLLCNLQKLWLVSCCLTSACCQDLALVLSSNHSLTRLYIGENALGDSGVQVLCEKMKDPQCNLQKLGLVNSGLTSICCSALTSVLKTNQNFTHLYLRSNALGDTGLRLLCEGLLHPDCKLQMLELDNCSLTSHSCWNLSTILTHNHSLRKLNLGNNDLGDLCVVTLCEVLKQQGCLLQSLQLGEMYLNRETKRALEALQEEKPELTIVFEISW

OCCN1CCC[C@@H](Nc2nnc(-c3ccc4occc4c3O)c3c2C2CCC3CC2)C1
inhibition [1]: Active | inhibition [2]: Dose-Dependent Effect | inhibition [3]: inactive | Activity [4]: Non-Toxic | inhibition [5]: inactive
